Measured values published in US11116774B2, “Modulators of toll-like receptors for the treatment of HIV” (Gilead Sciences, Inc., priority 2014, dated 2021).
Values joined by “and” are separate entries in the source; they are usually repeats but may differ in a detail not shown here. Identical values can stand only once.

What was measured:
[1] = test system: simian immunodeficiency virus (SIV); test: TLR7 modulating compound in SIV+ viremic rhesus at chronic set point: plasma viral load by quantitative RT-PCR (Example 203); format: in vivo, rhesus macaques
Method: Five chronically infected, SIV^+ rhesus macaques were either treated with the compound of Example 4 (n=3 animals) or with dosing vehicle (placebo, n=2 animals) in a multiple-dose, dose escalation, placebo controlled study. […] The animals were not administered combination antiretroviral therapy during any part of the study.
The animals were dosed once weekly by oral gavage (via nasogastric tube) with either the compound of Example 4 or placebo. Three animals were administered the compound of Example 4, prepared as described in Example 201. The first week, 1 mL/kg of the 0.1 mg/mL formulation was administered, corresponding to a dose of 0.1 mg/kg. The second week, 1 mL/kg of the 0.2 mg/mL formulation was administered, corresponding to a dose of 0.2 mg/kg. On weeks three through five, 1 mL/kg of the 0.3 mg/mL formulation was administered, corresponding to a dose of 0.3 mg/kg. Each week, two animals (placebo group) were administered the dosing vehicle as described in Example 201 at 1 mL/kg.
Each formulation of Example 201 or dosing vehicle only (placebo) was used fresh and thawed to room temperature prior to dosing. Plasma viral loads (expressed as SIV RNA copies per mL of plasma) were determined by quantitative RT-PCR of the SIV RNA measuring the gag gene transcripts at various times throughout the study for animals administered the compound of Example 4 and the placebo animals. […]

proviral SIV DNA = test: Proviral SIV DNA in PBMCs, lymph node and colon by qPCR (Example 205); format: in vivo, rhesus macaques
Description: A whole blood sample, an inguinal lymph node sample, and a colon pinch biopsy sample were taken from the animals dosed with the compound of Example 4 and from the animals dosed with the vehicle of Example 201 (placebo group) in the study described in Example 204. These samples were taken prior to initiation of dosing and two weeks after the last dose; all samples were taken while animals were on cART. Total DNA was isolated from each sample using commercially available blood and tissue DNA extraction kits. Proviral SIV DNA levels were measured by quantitative PCR (qPCR) using probe-primer sets specific to the SIV gag gene and normalization for cellular input by measuring the glyceraldehyde 3-phosphate dehydrogenase (GAPDH) gene levels. […] In one of the compound treated animals (166-08), there was only a noted decrease in the proviral DNA content in the PBMCs, a minor increase in lymph node, and a minor decrease in the colon. In the vehicle-dosed placebo control animals, however, there were slight to moderate increases in two of three animals in proviral SIV DNA in the PBMC and colon samples, and relatively stable levels in lymph node samples.

[2] = test system: peripheral CD8 lymphocytes (CD3+CD8+CD4−); test: Peripheral lymphocyte activation, CD69 by flow cytometry: CD8 lymphocytes (Example 206); format: in vivo, rhesus macaque
Description: During the course of treatment with the compound of Example 4 as described in Example 204, peripheral lymphocyte activation was monitored in the groups dosed with the compound of Example 4 or the dosing vehicle of Example 201 (placebo), by measuring the expression of the early activation marker CD69 on various lymphocyte subsets by flow cytometry methodology. This methodology was used to quantify the percentage of immune cell subsets expressing the early activation marker. Standard data acquisition techniques were employed on a flow cytometer and by the use of antibodies conjugated to fluorescent molecules where the antibodies recognize rhesus macaque cell surface proteins on various immune cell subsets. In animals dosed with the compound of Example 4, whole blood samples were collected for each dose at various time points both at pre- and post-administration of compound. Total PBMCs were stained in the whole blood samples using antibodies that were chosen to be reactive to rhesus CD3, CD4, CD8, NKG2A, CD16 and CD56, each conjugated to different fluorescent probes to delineate CD3+CD4+CD8− lymphocytes, CD3+CD4−CD8+ lymphocytes and CD3-CD8+ NKG2A+CD16+ CD56+ NK cells. The flow cytometry data presented herein are from animals treated with the compound of Example 4.

[3] = test system: cytokines and chemokines in PBMCs from HIV-infected donors; test: Induction of cytokines/chemokines ex vivo, Luminex (Example 211); format: cell-based, human; conditions: PBMC supernatant day 2
Method: PBMCs from HIV-infected donors on suppressive cART were isolated, as described previously, and immediately added to tissue culture plates pre-equilibrated at 37° C. with media containing DMSO or the compound of Example 49 (GS-9620) at concentrations from 0.1 nM or 10.0 uM. At day 2 after treatment, cell-free culture supernatants were collected and frozen at −80C for subsequent analysis. Frozen supernatants were thawed at room temperature, and the cytokines and chemokines indicated were quantitated with a custom multiplexed xMAP Luminex® assay following the manufacturer's instructions (Thermo Fisher Scientific Inc., Grand Island, N.Y., custom-designed kit).

CCCCOc1nc(N)c2c(n1)N(Cc1ccc(CN3CCCC3)cc1)CC(=O)N2 [Example 4]
plasma viral load ([1]; animal with the lowest chronic set point, undetectable for at least 100 days following the last dose (FIG. 1)): < 50 RNA copies/mL | sustained decrease in viral load set point compared to pre-dose ([1]; second animal, log10 RNA copies, maintained at least 100 days following the last dose (FIG. 2)): approximately 1 log order | Proviral SIV DNA, PBMC, Pre (proviral SIV DNA; SIV+ rhesus on cART, prior to initiation of dosing, one line per animal): 150 copies/10^6 cells and 68 copies/10^6 cells and 160 copies/10^6 cells and 120 copies/10^6 cells | Proviral SIV DNA, PBMC, Post (proviral SIV DNA; SIV+ rhesus on cART, two weeks after the last dose, one line per animal): 100 copies/10^6 cells and 34 copies/10^6 cells and 89 copies/10^6 cells and 3 copies/10^6 cells | Proviral SIV DNA, Colon, Pre (proviral SIV DNA; colon pinch biopsy, on cART, prior to initiation of dosing, one line per animal): 230 copies/10^6 cells and 80 copies/10^6 cells and 150 copies/10^6 cells and 110 copies/10^6 cells | Proviral SIV DNA, Colon, Post (proviral SIV DNA; colon pinch biopsy, on cART, two weeks after the last dose, one line per animal): 210 copies/10^6 cells and 3 copies/10^6 cells (3×) | Proviral SIV DNA, Lymph node, Pre (proviral SIV DNA; inguinal lymph node, on cART, prior to initiation of dosing, one line per animal): 270 copies/10^6 cells and 31 copies/10^6 cells and 210 copies/10^6 cells and 130 copies/10^6 cells | Proviral SIV DNA, Lymph node, Post (proviral SIV DNA; inguinal lymph node, on cART, two weeks after the last dose, one line per animal): 280 copies/10^6 cells and 3 copies/10^6 cells (2×) and 84 copies/10^6 cells | change of proviral SIV DNA, pre- vs post-treatment, across PBMC, inguinal lymph node and colon (proviral SIV DNA; within each animal, on cART): clear decrease in proviral DNA content for three of four animals | mean maximum percent change in CD69 expression on CD8 lymphocytes ([2]; all subsequent 0.3 mg/kg doses): 15.5% | mean maximum percent change in CD69 expression on CD8 lymphocytes ([2]; dose 0.1 mg/kg, any time point (rise 24 to 72 hours post-dose), pre-dose range 3.3-12.6%): 7.8% | mean maximum percent change in CD69 expression on CD8 lymphocytes ([2]; dose 0.2 mg/kg, pre-dose range 3.0-15.7%): 9.5% | mean maximum percent change in CD69 expression on CD8 lymphocytes ([2]; first dose of 0.3 mg/kg, pre-dose range 5.0-14.4%): 17.3%

CCCCOc1nc(N)c2c(n1)N(Cc1cccc(CN3CCCC3)c1)CC(=O)N2 [Example 49]
BAFF fold induced vs. DMSO control [3]: <2-fold | I-TAC fold induced vs. DMSO control [3]: >100-fold | IFNα fold induced vs. DMSO control [3]: >100-fold | IFNβ fold induced vs. DMSO control [3]: <2-fold | IFNω fold induced vs. DMSO control [3]: >100-fold | IL-1 RA fold induced vs. DMSO control [3]: >100-fold | IL-4 fold induced vs. DMSO control [3]: <2-fold | IL-5 fold induced vs. DMSO control [3]: <2-fold | IL-6 fold induced vs. DMSO control [3]: >100-fold | IL-10 fold induced vs. DMSO control [3]: >100-fold | IL-12 (p70) fold induced vs. DMSO control [3]: <2-fold | IL-13 fold induced vs. DMSO control [3]: <2-fold | IL-17 fold induced vs. DMSO control [3]: <2-fold | IL-18 fold induced vs. DMSO control [3]: <2-fold | IL-27 fold induced vs. DMSO control [3]: <2-fold | IL-31 fold induced vs. DMSO control [3]: <2-fold | IP-10 fold induced vs. DMSO control [3]: >100-fold | MCP-1 fold induced vs. DMSO control [3]: >100-fold | MIP-1α fold induced vs. DMSO control [3]: >100-fold | MIP-1β fold induced vs. DMSO control [3]: >100-fold | MMP-1 fold induced vs. DMSO control [3]: <2-fold | SCD40L fold induced vs. DMSO control [3]: <2-fold | TNFS10 fold induced vs. DMSO control [3]: <2-fold
